Where a name gives a salt, the structure may show the parent alone.
Columns and labels:
[1] = target: 5-hydroxytryptamine receptor 4 (Homo sapiens, UniProt Q13639)
[2] = target: T1, 5-hydroxytryptamine receptor 1F (Homo sapiens, UniProt P30939)
T1 sequence (P30939 whole entry): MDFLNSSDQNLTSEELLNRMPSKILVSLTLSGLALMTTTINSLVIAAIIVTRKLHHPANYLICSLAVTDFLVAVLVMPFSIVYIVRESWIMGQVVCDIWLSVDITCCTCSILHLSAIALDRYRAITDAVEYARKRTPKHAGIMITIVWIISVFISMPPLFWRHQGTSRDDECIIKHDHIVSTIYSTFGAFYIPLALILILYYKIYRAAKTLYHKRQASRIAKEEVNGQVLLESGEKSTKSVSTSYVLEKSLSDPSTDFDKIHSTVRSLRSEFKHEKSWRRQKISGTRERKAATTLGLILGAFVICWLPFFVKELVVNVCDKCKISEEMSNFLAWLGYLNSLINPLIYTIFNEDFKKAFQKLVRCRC

[3] = target: 5-hydroxytryptamine receptor 2B (Homo sapiens, UniProt P41595)
[4] = target: 5-hydroxytryptamine receptor 1E (Homo sapiens, UniProt P28566)
[5] = target: T2, 5-hydroxytryptamine receptor 2C (Homo sapiens, UniProt P28335)
T2 sequence (P28335 whole entry): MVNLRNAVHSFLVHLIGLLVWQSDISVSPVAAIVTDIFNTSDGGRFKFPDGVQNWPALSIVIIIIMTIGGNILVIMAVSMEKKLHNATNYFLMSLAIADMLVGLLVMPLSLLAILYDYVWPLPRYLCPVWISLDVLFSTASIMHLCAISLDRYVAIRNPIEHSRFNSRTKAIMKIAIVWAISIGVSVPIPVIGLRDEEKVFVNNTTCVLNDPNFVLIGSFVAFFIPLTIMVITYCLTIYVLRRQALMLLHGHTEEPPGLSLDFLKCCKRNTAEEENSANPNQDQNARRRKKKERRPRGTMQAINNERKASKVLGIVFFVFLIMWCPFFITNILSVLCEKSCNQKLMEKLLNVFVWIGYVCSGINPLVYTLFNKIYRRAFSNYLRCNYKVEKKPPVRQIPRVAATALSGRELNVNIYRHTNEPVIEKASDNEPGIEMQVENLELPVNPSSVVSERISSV

[6] = target: 5-hydroxytryptamine receptor 6 (Homo sapiens, UniProt P50406)
[7] = target: T3, Alpha-1B adrenergic receptor (Homo sapiens, UniProt P35368)
T3 sequence (P35368 whole entry): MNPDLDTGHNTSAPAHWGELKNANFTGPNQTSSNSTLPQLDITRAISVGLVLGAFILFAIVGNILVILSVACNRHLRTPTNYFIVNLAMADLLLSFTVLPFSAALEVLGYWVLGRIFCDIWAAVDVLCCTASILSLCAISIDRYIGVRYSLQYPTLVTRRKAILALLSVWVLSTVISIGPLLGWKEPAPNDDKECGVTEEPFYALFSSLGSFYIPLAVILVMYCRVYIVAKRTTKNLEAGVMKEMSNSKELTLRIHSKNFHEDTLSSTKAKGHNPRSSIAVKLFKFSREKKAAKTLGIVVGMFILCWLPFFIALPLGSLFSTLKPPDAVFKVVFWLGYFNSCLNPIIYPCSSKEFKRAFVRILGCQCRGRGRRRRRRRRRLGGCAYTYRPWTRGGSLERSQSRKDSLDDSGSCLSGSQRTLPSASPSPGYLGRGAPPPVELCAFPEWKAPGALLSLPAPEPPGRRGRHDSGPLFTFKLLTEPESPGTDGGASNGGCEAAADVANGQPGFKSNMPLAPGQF

Chain of 5-hydroxytryptamine receptor 4 (Q13639 whole entry): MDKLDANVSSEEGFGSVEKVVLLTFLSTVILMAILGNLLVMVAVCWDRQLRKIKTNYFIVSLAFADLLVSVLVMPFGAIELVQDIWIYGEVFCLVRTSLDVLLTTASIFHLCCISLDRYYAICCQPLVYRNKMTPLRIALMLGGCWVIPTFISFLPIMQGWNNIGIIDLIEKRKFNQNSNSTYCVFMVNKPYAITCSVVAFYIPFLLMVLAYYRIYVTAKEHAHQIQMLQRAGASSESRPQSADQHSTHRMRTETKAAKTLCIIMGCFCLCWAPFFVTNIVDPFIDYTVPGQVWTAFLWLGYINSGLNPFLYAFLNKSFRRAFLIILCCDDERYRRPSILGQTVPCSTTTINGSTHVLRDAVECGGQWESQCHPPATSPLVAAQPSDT
Chain of 5-hydroxytryptamine receptor 1E (P28566 whole entry): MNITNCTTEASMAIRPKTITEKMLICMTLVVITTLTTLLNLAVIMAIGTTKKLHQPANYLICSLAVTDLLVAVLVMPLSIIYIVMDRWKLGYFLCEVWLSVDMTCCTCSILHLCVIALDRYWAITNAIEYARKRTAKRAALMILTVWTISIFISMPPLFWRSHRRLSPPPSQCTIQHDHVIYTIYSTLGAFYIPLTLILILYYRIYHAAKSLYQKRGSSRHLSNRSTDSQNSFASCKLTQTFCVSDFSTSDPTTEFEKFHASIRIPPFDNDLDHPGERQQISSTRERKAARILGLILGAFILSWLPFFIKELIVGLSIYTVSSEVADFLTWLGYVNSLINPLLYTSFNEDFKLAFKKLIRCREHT
Chain of 5-hydroxytryptamine receptor 2B (P41595 whole entry): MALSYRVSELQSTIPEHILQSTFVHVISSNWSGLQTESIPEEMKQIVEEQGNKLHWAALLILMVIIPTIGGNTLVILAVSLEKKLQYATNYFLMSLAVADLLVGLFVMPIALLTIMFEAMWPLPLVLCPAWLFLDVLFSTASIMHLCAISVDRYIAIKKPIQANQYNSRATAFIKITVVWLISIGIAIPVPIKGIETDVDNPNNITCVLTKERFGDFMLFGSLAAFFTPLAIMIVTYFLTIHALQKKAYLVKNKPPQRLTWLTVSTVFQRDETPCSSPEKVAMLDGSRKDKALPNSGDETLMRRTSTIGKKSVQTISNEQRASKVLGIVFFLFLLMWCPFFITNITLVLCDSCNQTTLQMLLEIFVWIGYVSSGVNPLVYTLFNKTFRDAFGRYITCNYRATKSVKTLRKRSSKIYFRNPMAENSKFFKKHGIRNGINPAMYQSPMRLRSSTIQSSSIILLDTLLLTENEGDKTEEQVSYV
Chain of 5-hydroxytryptamine receptor 6 (P50406 whole entry): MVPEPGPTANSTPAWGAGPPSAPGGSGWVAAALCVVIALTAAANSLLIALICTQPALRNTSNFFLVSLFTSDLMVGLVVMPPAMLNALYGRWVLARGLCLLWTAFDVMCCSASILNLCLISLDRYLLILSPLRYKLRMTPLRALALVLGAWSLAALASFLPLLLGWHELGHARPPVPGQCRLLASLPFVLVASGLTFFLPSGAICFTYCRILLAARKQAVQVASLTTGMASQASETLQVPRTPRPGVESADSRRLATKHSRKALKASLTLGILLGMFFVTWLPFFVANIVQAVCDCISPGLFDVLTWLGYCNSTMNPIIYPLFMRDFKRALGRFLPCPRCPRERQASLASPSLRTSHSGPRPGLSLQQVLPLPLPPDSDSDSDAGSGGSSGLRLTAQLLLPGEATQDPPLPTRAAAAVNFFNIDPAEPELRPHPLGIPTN

Row | Ki [1] [µM] | Ki [2] [µM] | Ki [3] [µM] | Ki [4] [µM] | Ki [5] [µM] | Ki [6] [µM] | Ki [7] [µM] | SMILES
1 |  | 3.16 |  |  |  |  | > 10 | CC1CCN(CC[C@H]2CCCN2S(=O)(=O)c2cccc(O)c2)CC1 [(R)-3-(2-(2-(4-methylpiperidin-1-yl)ethyl)pyrrolidine-1-sulfonyl)phenol]
2 |  | > 10 |  | > 10 |  |  |  | CC1CCN(CC[C@H]2CCCN2S(=O)(=O)c2cccc3ccccc23)CC1 [(R)-4-Methyl-1-(2-(1-(naphthalene-1-sulfonyl)-pyrrolidin-2-yl)-ethyl)-piperidine(10)]
3 | > 10 | > 10 | 2.51 | > 10 |  |  |  | Cc1cccc(S(=O)(=O)N2CCC[C@@H]2CCN2CCC(C)CC2)c1 [(R)-4-Methyl-1-(2-(1-toluene-3-sulfonyl)-pyrrolidin-2-yl)-ethyl)-piperidine (Oxalate salt)]

The remaining lines, values behind:

Row | SMILES | Ki [1] [µM] | Ki [2] [µM] | Ki [3] [µM] | Ki [4] [µM] | Ki [5] [µM] | Ki [6] [µM] | Ki [7] [µM]
4 | CC1CCN(CC[C@H]2CCCN2S(=O)(=O)c2ccc(Cl)c(Cl)c2)CC1 [(R)-1-(2-(1-(3,4-Dichloro-benzenesulfonyl)-pyrrolidin-2-yl)-ethyl)-4-methyl piperidine] | 3.16 | 3.16 |  |  |  |  | 
5 | CC1CCN(CC[C@H]2CCCN2S(=O)(=O)c2cccc(Br)c2)CC1 [(R)-1-(2-(1-(3-bromo-benzenesulfonyl)-pyrrolidin-2-yl)-ethyl)-4-methyl piperidine] | 6.31 | 5.01 | 1.58 | 2.51 | 5.01 |  | 
6 | COc1cccc(S(=O)(=O)N2CCC[C@@H]2CCN2CCC(C)CC2)c1 [(R)-1-(2-(1-(3-methoxy-benzenesulfonyl)-pyrrolidin-2-yl)-ethyl-4-methylpiperidine] |  |  |  |  |  | > 10 | 

Source: BindingDB's records for doi:10.1021/jm991151j (Smithkline Beecham Pharmaceuticals, 2000)
